According to ChEMBL document CHEMBL1133854, “Discovery and evaluation of piperidinyl carboxylic acid derivatives as potent alpha(4)beta(1) integrin antagonists” (Bioorg Med Chem Lett, 2001):

Assays:
Integrin alpha-4/beta-1 [1] = target: T1, Integrin alpha-4/beta-1 (Homo sapiens, UniProt P05556+P13612); assay: Inhibition of VCAM-1 binding to integrin alpha4-beta1 of Jurkat cells; type: cell-based
Integrin alpha-4/beta-1 [2] = target: T1, Integrin alpha-4/beta-1; assay: Inhibition of VCAM-1 binding to integrin alpha4-beta1 in Jurkat cells at 10 uM; type: cell-based
[3] = Partition coefficient (logP); type: physicochemical; conditions: octanol/water
[4] = Area under curve (AUC) determined at a dose 10 mg/kg administered intraperitoneally to mice; type: ADME, organism-based; set-up: dose 10 mg/kg, route intraperitoneal; conditions: mouse, in vivo, ip
[5] = Maximal concentration determined at a dose 10 mg/kg administered intraperitoneally to mice; type: ADME, organism-based; set-up: dose 10 mg/kg, route intraperitoneal; conditions: mouse, in vivo, ip
Integrin alpha-V/beta-3 = Integrin alpha-V/beta-3 (Homo sapiens, UniProt P05106+P06756); assay: Inhibition of VCAM-1 binding to integrin alphaV-beta3 in Jurkat cells; type: cell-based
Chain of Integrin alpha-V/beta-3 (P05106 27-788 limits assumed): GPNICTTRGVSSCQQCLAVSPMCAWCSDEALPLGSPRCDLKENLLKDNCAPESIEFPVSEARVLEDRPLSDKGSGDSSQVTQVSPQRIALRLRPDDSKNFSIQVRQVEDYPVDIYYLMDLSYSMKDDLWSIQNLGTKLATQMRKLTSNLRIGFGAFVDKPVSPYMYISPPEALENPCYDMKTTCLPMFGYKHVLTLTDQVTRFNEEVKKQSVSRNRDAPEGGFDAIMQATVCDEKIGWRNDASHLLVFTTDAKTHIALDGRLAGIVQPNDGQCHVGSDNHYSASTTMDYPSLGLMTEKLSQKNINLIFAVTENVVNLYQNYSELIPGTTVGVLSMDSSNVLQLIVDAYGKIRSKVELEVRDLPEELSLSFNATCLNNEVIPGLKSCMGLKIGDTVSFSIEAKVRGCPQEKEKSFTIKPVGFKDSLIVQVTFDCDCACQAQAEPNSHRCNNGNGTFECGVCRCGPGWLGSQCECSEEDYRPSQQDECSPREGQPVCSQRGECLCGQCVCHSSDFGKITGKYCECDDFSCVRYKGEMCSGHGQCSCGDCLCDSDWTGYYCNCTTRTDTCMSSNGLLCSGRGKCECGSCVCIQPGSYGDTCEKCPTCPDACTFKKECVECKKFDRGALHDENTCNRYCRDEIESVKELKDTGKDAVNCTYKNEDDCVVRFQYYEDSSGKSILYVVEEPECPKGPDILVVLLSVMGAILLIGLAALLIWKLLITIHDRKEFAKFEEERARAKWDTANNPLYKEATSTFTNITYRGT
Chain of Integrin alpha-V/beta-3 (P06756 31-889 limits assumed): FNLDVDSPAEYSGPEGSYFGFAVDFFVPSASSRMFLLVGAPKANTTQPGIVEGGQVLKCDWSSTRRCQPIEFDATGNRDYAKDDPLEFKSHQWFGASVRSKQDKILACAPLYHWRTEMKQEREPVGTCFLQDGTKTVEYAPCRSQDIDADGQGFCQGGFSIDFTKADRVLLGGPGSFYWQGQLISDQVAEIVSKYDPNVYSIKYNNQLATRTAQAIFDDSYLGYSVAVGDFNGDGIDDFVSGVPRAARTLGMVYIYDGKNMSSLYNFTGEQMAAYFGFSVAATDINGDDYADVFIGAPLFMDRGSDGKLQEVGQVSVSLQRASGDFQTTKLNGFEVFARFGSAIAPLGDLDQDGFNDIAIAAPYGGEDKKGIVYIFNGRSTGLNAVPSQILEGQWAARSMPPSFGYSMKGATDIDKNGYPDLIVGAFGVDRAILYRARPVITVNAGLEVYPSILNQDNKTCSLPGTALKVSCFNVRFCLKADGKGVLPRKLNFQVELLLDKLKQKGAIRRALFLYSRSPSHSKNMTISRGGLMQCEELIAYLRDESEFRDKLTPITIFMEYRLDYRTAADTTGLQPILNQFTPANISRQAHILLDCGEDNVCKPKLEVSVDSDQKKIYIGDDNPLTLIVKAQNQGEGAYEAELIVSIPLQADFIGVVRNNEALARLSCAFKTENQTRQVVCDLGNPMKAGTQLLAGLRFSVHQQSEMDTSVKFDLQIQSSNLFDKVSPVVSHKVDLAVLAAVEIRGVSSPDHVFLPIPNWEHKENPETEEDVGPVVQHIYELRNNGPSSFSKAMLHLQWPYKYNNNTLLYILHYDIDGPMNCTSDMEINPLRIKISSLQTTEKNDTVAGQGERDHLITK
Chain of Integrin alpha-V/beta-3 (P06756 891-1048 limits assumed): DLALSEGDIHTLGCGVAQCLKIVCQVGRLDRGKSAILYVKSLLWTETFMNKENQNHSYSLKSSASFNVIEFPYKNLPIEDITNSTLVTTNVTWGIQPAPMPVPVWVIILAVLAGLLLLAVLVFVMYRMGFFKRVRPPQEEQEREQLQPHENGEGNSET

[6] = Inhibition of VCAM-1 binding to integrin alpha9/beta1 in Jurkat cells; type: cell-based, Homo sapiens
[7] = Half life (t1/2) determined at a dose 10 mg/kg administered intraperitoneally to mice; type: ADME, organism-based; set-up: dose 10 mg/kg, route intraperitoneal; conditions: mouse, in vivo, ip

T1 sequence (P05556 whole entry): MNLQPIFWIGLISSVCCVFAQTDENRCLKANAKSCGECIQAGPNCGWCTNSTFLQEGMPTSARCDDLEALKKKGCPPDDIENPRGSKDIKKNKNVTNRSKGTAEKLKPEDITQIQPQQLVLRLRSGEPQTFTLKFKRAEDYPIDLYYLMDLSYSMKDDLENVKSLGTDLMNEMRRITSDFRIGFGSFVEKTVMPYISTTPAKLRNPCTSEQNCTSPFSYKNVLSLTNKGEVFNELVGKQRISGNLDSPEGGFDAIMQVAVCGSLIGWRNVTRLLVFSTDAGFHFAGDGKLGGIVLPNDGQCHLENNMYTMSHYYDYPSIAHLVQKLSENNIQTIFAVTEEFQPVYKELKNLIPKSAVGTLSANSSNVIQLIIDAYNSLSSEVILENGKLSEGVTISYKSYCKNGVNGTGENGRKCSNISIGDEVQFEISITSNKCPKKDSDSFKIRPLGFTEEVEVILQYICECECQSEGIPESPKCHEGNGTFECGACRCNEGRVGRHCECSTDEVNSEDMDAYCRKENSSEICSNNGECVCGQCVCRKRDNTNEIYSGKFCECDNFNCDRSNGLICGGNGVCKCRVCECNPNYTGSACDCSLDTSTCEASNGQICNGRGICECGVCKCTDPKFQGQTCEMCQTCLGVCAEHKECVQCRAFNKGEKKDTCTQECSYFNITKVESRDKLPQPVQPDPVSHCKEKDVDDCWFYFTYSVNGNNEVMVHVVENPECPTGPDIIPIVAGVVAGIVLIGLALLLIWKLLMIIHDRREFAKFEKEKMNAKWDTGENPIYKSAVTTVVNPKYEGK
T1 sequence (P13612 whole entry): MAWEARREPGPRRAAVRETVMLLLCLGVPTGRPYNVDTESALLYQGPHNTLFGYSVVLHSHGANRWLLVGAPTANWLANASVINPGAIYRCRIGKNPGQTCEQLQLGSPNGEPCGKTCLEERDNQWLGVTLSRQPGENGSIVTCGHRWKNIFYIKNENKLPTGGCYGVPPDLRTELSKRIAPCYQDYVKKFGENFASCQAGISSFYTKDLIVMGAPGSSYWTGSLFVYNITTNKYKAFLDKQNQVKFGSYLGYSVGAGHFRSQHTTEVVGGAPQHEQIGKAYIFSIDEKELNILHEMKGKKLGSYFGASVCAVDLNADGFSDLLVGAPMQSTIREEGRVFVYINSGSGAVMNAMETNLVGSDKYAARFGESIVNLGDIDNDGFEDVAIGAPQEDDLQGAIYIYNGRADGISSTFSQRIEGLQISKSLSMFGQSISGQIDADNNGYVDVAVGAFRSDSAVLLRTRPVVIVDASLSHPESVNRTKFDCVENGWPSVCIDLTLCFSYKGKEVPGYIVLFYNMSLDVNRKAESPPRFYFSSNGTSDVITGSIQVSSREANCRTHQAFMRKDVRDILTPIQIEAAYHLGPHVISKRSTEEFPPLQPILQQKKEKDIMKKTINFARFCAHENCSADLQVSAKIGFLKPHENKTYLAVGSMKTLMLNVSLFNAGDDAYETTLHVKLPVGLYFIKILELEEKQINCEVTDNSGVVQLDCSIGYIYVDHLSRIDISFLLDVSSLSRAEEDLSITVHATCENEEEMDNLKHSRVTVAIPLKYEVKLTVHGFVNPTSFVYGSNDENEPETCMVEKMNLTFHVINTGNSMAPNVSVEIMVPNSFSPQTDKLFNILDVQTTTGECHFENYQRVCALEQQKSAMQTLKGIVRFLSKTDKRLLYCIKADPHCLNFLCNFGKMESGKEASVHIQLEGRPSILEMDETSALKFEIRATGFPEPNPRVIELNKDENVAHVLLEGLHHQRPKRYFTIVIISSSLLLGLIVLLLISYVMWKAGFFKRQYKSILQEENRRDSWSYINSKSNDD

| Structure (SMILES) | IC50 (Integrin alpha-4/beta-1 [1]) [µM] | inhibition (Integrin alpha-4/beta-1 [2]) [%] | further results |
| --- | --- | --- | --- |
| Cc1ccccc1NC(=O)Nc1ccc(CC(=O)N[C@@H](CC(C)C)C(=O)N2CCCCC2C(C(=O)O)c2ccccc2)cc1 (stereo partly drawn) | 4.96 | 99 |  |
| Cc1ccccc1NC(=O)Nc1ccc(CC(=O)N[C@@H](CC(C)C)C(=O)N[C@H](C)CC(=O)O)cc1 |  |  | logP [3]: 1.72 |
| Cc1ccccc1NC(=O)Nc1ccc(CC(=O)N[C@@H](CC(C)C)C(=O)N2CCCC(C(=O)O)C2)cc1 (stereo partly drawn) | > 10 | 25 |  |
| Cc1ccccc1NC(=O)Nc1ccc(CC(=O)N[C@@H](CC(C)C)C(=O)N2CCCC(CCC(=O)O)C2)cc1 (stereo partly drawn) | 6.74 | 77 |  |
| Cc1ccccc1NC(=O)Nc1ccc(CC(=O)N[C@@H](CC(C)C)C(=O)N2CCCCC2C(=O)O)cc1 (stereo partly drawn) | 10 | 49 |  |
| Cc1ccccc1NC(=O)Nc1ccc(CC(=O)N[C@@H](CC(C)C)C(=O)N2CCCCC2CC(=O)O)cc1 (stereo partly drawn) | 0.3 | 100 | AUC [4]: 955 ng·h/mL; Cmax [5]: 1440 ng/mL; logP [3]: 1.89; IC50 (Integrin alpha-V/beta-3): > 200 µM; IC50 [6]: > 50 µM; half-life [7]: 48 min |

Now from value to compound, other results behind:

| IC50 (Integrin alpha-4/beta-1 [1]) [µM] | inhibition (Integrin alpha-4/beta-1 [2]) [%] | Structure (SMILES) | further results |
| --- | --- | --- | --- |
| 4.7 | 96 | Cc1ccccc1NC(=O)Nc1ccc(CC(=O)N[C@@H](CC(C)C)C(=O)N2CCC(C(=O)O)CC2)cc1 |  |
| 7.2 | 55 | Cc1ccccc1NC(=O)Nc1ccc(CC(=O)N[C@@H](CC(C)C)C(=O)N2CCCC(CC(=O)O)C2)cc1 (stereo partly drawn) |  |
| 0.55 | 98 | Cc1ccccc1NC(=O)Nc1ccc(CC(=O)N[C@@H](CC(C)C)C(=O)N2CCC(CC(=O)O)CC2)cc1 |  |
